Laboratory results from the NIST ThermoML archive (doi:10.1016/j.jct.2017.08.004).

Experiment: molar heat capacity at constant pressure
Details: 101.33 kPa, Crystal

OC[C@@H](O)C(O)[C@H](O)CO [D-arabitol]
Details	molar heat capacity at constant pressure [J/K/mol]
1 K, relaxation calorimetry	0.0009451
1.937 K, relaxation calorimetry	0.004787
2 K, relaxation calorimetry	0.005256
2.125 K, relaxation calorimetry	0.006243
2.35 K, relaxation calorimetry	0.008303
2.6 K, relaxation calorimetry	0.01105
2.887 K, relaxation calorimetry	0.01495
3 K, relaxation calorimetry	0.01673
3.199 K, relaxation calorimetry	0.02023
3.546 K, relaxation calorimetry	0.02753
3.931 K, relaxation calorimetry	0.03744
4 K, relaxation calorimetry	0.04001
4.359 K, relaxation calorimetry	0.05185
4.836 K, relaxation calorimetry	0.07292
5 K, relaxation calorimetry	0.08105
5.366 K, relaxation calorimetry	0.1017
5.953 K, relaxation calorimetry	0.1443
6 K, relaxation calorimetry	0.1475
6.605 K, relaxation calorimetry	0.205
7 K, relaxation calorimetry	0.2508
7.334 K, relaxation calorimetry	0.2964
8 K, relaxation calorimetry	0.4038
8.14 K, relaxation calorimetry	0.43
9 K, relaxation calorimetry	0.6157
9.034 K, relaxation calorimetry	0.6226
10 K, relaxation calorimetry	0.8917
10.11 K, relaxation calorimetry	0.9222
11.21 K, relaxation calorimetry	1.313
12.44 K, relaxation calorimetry	1.849
13.81 K, relaxation calorimetry	2.558
15 K, relaxation calorimetry	3.255
15.35 K, relaxation calorimetry	3.473
17.03 K, relaxation calorimetry	4.645
18.91 K, relaxation calorimetry	6.093
20 K, relaxation calorimetry	6.963
21.01 K, relaxation calorimetry	7.823
23.33 K, relaxation calorimetry	9.878
25 K, relaxation calorimetry	11.45
25.91 K, relaxation calorimetry	12.28
28.73 K, relaxation calorimetry	15.02
30 K, relaxation calorimetry	16.29
31.9 K, relaxation calorimetry	18.17
35 K, relaxation calorimetry	21.27
35.42 K, relaxation calorimetry	21.72
39.33 K, relaxation calorimetry	25.68
40 K, relaxation calorimetry	26.29
43.65 K, relaxation calorimetry	29.96
45 K, relaxation calorimetry	31.26
48.46 K, relaxation calorimetry	34.52
50 K, relaxation calorimetry	36.09
53.77 K, relaxation calorimetry	39.56
55 K, relaxation calorimetry	40.76
59.7 K, relaxation calorimetry	45.1
60 K, relaxation calorimetry	45.36
65 K, relaxation calorimetry	49.82
66.28 K, relaxation calorimetry	51.01
70 K, relaxation calorimetry	54.16
73.58 K, relaxation calorimetry	57.16
75 K, relaxation calorimetry	58.37
80 K, relaxation calorimetry	62.48
81.67 K, relaxation calorimetry	64.04
85 K, relaxation calorimetry	66.48
90 K, relaxation calorimetry	70.37
90.67 K, relaxation calorimetry	71
95 K, relaxation calorimetry	74.17
100 K, relaxation calorimetry	77.87
100.64 K, relaxation calorimetry	77.78
110 K, relaxation calorimetry	85.02
110.77 K, relaxation calorimetry	85.2
120 K, relaxation calorimetry	91.85
120.77 K, relaxation calorimetry	92.62
130 K, relaxation calorimetry	98.42
130.79 K, relaxation calorimetry	99.38
140 K, relaxation calorimetry	104.78
140.95 K, relaxation calorimetry	105.44
150 K, relaxation calorimetry	110.97
151.07 K, relaxation calorimetry	111.74
160 K, relaxation calorimetry	117.04
161.18 K, relaxation calorimetry	117.79
170 K, relaxation calorimetry	123.02
171.3 K, relaxation calorimetry	123.63
180 K, relaxation calorimetry	128.94
181.38 K, relaxation calorimetry	129.86
188.15 K, Small sample (50 mg) DSC	120.48
189.15 K, Small sample (50 mg) DSC	123.07
190 K, relaxation calorimetry	134.84
190.15 K, Small sample (50 mg) DSC	124.65
191.15 K, Small sample (50 mg) DSC	125.58
191.48 K, relaxation calorimetry	135.82
192.15 K, Small sample (50 mg) DSC	126.38
193.15 K, Small sample (50 mg) DSC	127.14
194.15 K, Small sample (50 mg) DSC	128.51
195.15 K, Small sample (50 mg) DSC	129.68
196.15 K, Small sample (50 mg) DSC	130.93
197.15 K, Small sample (50 mg) DSC	131.96
198.15 K, Small sample (50 mg) DSC	132.82
199.15 K, Small sample (50 mg) DSC	133.79
200 K, relaxation calorimetry	140.73
200.15 K, Small sample (50 mg) DSC	134.6
201.15 K, Small sample (50 mg) DSC	135.54
201.59 K, relaxation calorimetry	141.2
202.15 K, Small sample (50 mg) DSC	136.28
203.15 K, Small sample (50 mg) DSC	137.06
204.15 K, Small sample (50 mg) DSC	137.97
205.15 K, Small sample (50 mg) DSC	138.38
206.15 K, Small sample (50 mg) DSC	139.19
207.15 K, Small sample (50 mg) DSC	139.97
208.15 K, Small sample (50 mg) DSC	140.52
209.15 K, Small sample (50 mg) DSC	141.24
210 K, relaxation calorimetry	146.63
210.15 K, Small sample (50 mg) DSC	141.94
211.15 K, Small sample (50 mg) DSC	142.48
211.7 K, relaxation calorimetry	147.25
212.15 K, Small sample (50 mg) DSC	142.99
213.15 K, Small sample (50 mg) DSC	143.53
214.15 K, Small sample (50 mg) DSC	144.41
215.15 K, Small sample (50 mg) DSC	145.07
216.15 K, Small sample (50 mg) DSC	145.48
217.15 K, Small sample (50 mg) DSC	146.17
218.15 K, Small sample (50 mg) DSC	147.07
219.15 K, Small sample (50 mg) DSC	147.64
220 K, relaxation calorimetry	152.57
220.15 K, Small sample (50 mg) DSC	148.47
221.15 K, Small sample (50 mg) DSC	149.24
221.79 K, relaxation calorimetry	153.65
222.15 K, Small sample (50 mg) DSC	149.98
223.15 K, Small sample (50 mg) DSC	150.71
224.15 K, Small sample (50 mg) DSC	151.3
225.15 K, Small sample (50 mg) DSC	152.01
226.15 K, Small sample (50 mg) DSC	152.68
227.15 K, Small sample (50 mg) DSC	153.31
228.15 K, Small sample (50 mg) DSC	153.85
229.15 K, Small sample (50 mg) DSC	154.52
230 K, relaxation calorimetry	158.55
230.15 K, Small sample (50 mg) DSC	155.25
231.15 K, Small sample (50 mg) DSC	155.76
231.88 K, relaxation calorimetry	159.8
232.15 K, Small sample (50 mg) DSC	156.46
233.15 K, Small sample (50 mg) DSC	157.18
234.15 K, Small sample (50 mg) DSC	157.71
235.15 K, Small sample (50 mg) DSC	158.49
236.15 K, Small sample (50 mg) DSC	159.12
237.15 K, Small sample (50 mg) DSC	159.84
238.15 K, Small sample (50 mg) DSC	160.39
239.15 K, Small sample (50 mg) DSC	160.99
240 K, relaxation calorimetry	164.59
240.15 K, Small sample (50 mg) DSC	161.64
241.15 K, Small sample (50 mg) DSC	162.22
241.88 K, relaxation calorimetry	165.73
242.15 K, Small sample (50 mg) DSC	162.77
243.15 K, Small sample (50 mg) DSC	163.32
244.15 K, Small sample (50 mg) DSC	163.71
245.15 K, Small sample (50 mg) DSC	164.33
246.15 K, Small sample (50 mg) DSC	165.01
247.15 K, Small sample (50 mg) DSC	165.5
248.15 K, Small sample (50 mg) DSC	166.22
249.15 K, Small sample (50 mg) DSC	167
250 K, relaxation calorimetry	170.71
